Source: patent publication US20260285853A1, “COMPOUNDS AND METHODS FOR MODULATING SPLICING” (REMIX THERAPEUTICS INC., priority 2023, published 2026)
Where two headings read alike, the source gives them in different places.

Assays:
Type in all cases: cell-based
[1] = test system: HTT mRNA; experiment: Splicing RT-qPCR assay (THP), Table 2A
[2] = test system: MYB mRNA; experiment: Gene panel canonical junction qPCR assay, decrease in CJ mRNA, Table 3
Outline: (§1)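 Cells: A673 or K562; 24 h compound exposure, 37 °C, 5% CO2; 11-pt 3-fold series from 10 uM final; DMSO ≤0.25%. Lysate → cDNA → qPCR with junction-spanning primers/probe for CJ transcript. ΔCt vs housekeeper, ΔΔCt vs DMSO, 2^(−ΔΔCt), % response, 4PL → IC50.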

[3] = test system: HTT mRNA; experiment: as above
Outline: as §1

[4] = test system: SH-SY5Y (human neuroblastoma) cells; experiment: Cell viability, Cell Titer Glo 2.0 assay; conditions: read-out: Viability SHSY5Y.3 GI50
Outline: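 CellTiter-Glo 2.0 luminescence read-out after 72 h compound exposure (37 °C, 5% CO2); medium-only wells as blank. DMSO 0.1% final.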

[5] = test system: MYB mRNA; experiment: Splicing RT-qPCR assay (THP), Table 2A
[6] = Table 2A, THP, HTT alternative junction (AJ) mRNA, read-out: HTT AJ (AC50, increase in alternative junction mRNA)
[7] = Table 2A, THP, HTT canonical junction (CJ) mRNA, read-out: HTT CJ (IC50, decrease in canonical junction mRNA)
[8] = decrease in CJ mRNA levels, canonical junction qPCR, gene panel
[9] = Table 2A, THP, MYB alternative junction (AJ) mRNA, read-out: MYB AJ (AC50, increase in alternative junction mRNA)
[10] = Table 2A, THP, MYB canonical junction (CJ) mRNA, read-out: MYB CJ (IC50, decrease in canonical junction mRNA)
[11] = Table 2A (THP), AJ mRNA increase, read-out: HTT AJ (increase in alternative junction mRNA, AC50)
[12] = Table 2A (THP), CJ mRNA decrease, read-out: HTT CJ (decrease in canonical junction mRNA, IC50)
[13] = decrease in canonical junction (CJ) mRNA, gene panel qPCR, Table 3
[14] = Table 2A (THP), AJ mRNA increase, read-out: MYB AJ (increase in alternative junction mRNA, AC50)
[15] = Table 2A (THP), CJ mRNA decrease, read-out: MYB CJ (decrease in canonical junction mRNA, IC50)

Row | Compound | AC50 [1, 6] [µM] | IC50 [1, 7] [µM] | IC50 [2, 8] [µM] | IC50 [3, 8] [µM] | GI50 [4] [µM] | AC50 [5, 9] [µM] | IC50 [5, 10] [µM] | AC50 [1, 11] [µM] | IC50 [1, 12] [µM] | IC50 [2, 13] [µM] | IC50 [3, 13] [µM] | AC50 [5, 14] [µM] | IC50 [5, 15] [µM]
1 | COc1nc2c(C(=O)Nc3cc(CNS(C)(=O)=O)c4nn(C)cc4c3)ccc(N3C[C@H](C)N[C@@H](C)C3)c2s1 [Compound 731, 7-((3S,5S)-3,5-dimethylpiperazin-1-yl)-2-methoxy-N-(2-methyl-7-(methylsulfonamidomethyl)-2H-indazol-5-yl)benzo[d]thiazole-4-carboxamide 2,2,2-trifluoroacetate] | > 10 | > 10 | 0.1 to 1 | > 10 | 1 to 10 | 0.1 to 1 | 0.1 to 1 |  |  |  |  |  | 
2 | COc1nc2c(C(=O)Nc3cc(F)c4nn(C)cc4c3)ccc(N3CCN4CCCC[C@H]4C3)c2s1 [Compound 746] | 0.1 to 1 | 0.1 to 1 | 0.1 to 1 | 0.1 to 1 | 0.1 to 1 | < 0.1 | 0.1 to 1 |  |  |  |  |  | 
3 | COc1cc2nn(C)cc2cc1NC(=O)c1ccc(N2CCC(N3CCNCC3)C2)c2cn(C)nc12 (stereo not drawn) [Compound 539] |  |  |  |  | > 10 |  |  | 1 to 10 | > 10 | > 10 | > 10 | > 10 | > 10
4 | Cc1cn2cc(NC(=O)c3ccc(N4CCNCC4)c4cn(C)nc34)nc2c(CNS(C)(=O)=O)n1 [Compound 811] | > 10 | > 10 | > 10 | > 10 | > 10 | 1 to 10 | > 10 |  |  |  |  |  | 
5 | CCNC1CCN(c2cc(F)c(C(=O)Nc3cn4cc(CC5CC5)nc4c(F)c3OC)c3nn(C)cc23)CC1 [Compound 336, N-[2-(cyclopropyl-methyl)-8-fluoro-7-methoxyimidazo-[1,2-a]pyridin-6-yl]-4-[4-(ethylamino)-1-piperidyl]-6-fluoro-2-methyl-indazole-7-carboxamide] |  |  |  |  | > 10 |  |  | > 10 | > 10 | > 10 | > 10 | > 10 | > 10
6 | Cn1cc2cc(NC(=O)c3cc(F)c(N4CCC(NC5CC5)CC4)c4cn(C)nc34)cc(F)c2n1 [Compound 708, 4-[4-(cyclopropylamino)-1-piperidyl]-5-fluoro-N-(7-fluoro-2-methyl-indazol-5-yl)-2-methyl-indazole-7-carboxamide] | > 10 | > 10 | > 10 | > 10 | 1 to 10 | 1 to 10 | > 10 |  |  |  |  |  | 
7 | COc1nc2c(C(=O)Nc3cc(CO)c4nn(C)cc4c3)ccc(N3CCC(NC4CC4)CC3)c2s1 [Compound 862] | 0.1 to 1 | 0.1 to 1 | 0.1 to 1 | 0.1 to 1 | 0.1 to 1 | 0.1 to 1 | 0.1 to 1 |  |  |  |  |  | 
8 | COc1nc2c(C(=O)Nc3cn4cc(C)nc4c(OC)n3)ccc(N3C[C@H](C)N[C@@H](C)C3)c2s1 [Compound 759, 7-((3S,5S)-3,5-dimethylpiperazin-1-yl)-2-methoxy-N-(8-methoxy-2-methylimidazo[1,2-a]pyrazin-6-yl)benzo[d]thiazole-4-carboxamide 2,2,2-trifluoroacetate] | 1 to 10 | 1 to 10 | < 0.1 | 1 to 10 | 0.1 to 1 | < 0.1 | < 0.1 |  |  |  |  |  | 
9 | Cn1cc2cc(NC(=O)c3c(O)cc(N4CCC(NC5CC5)CC4)c4cn(C)nc34)cc(CNS(C)(=O)=O)c2n1 [Compound 852] | 1 to 10 | > 10 | 0.1 to 1 | > 10 | 1 to 10 | 0.1 to 1 | 0.1 to 1 |  |  |  |  |  | 
10 | COc1nc2c(C(=O)Nc3cc(F)c4nn(C)cc4c3)ccc(N3CCN[C@@H](C(C)(C)C)C3)c2s1 [Compound 742, 7-[(3S)-3-tert-butylpiperazin-1-yl]-N-(7-fluoro-2-methyl-indazol-5-yl)-2-methoxy-1,3-benzothiazole-4-carboxamide] | > 10 | > 10 | 0.1 to 1 | > 10 | 1 to 10 | 0.1 to 1 | 0.1 to 1 |  |  |  |  |  | 
11 | CCNC1CCN(c2ccc(C(=O)Nc3cc(Oc4ccccn4)c4nc(C)cn4c3)c3nn(C)cc23)CC1 [Compound 365, 4-[4-(ethylamino)-1-piperidyl]-2-methyl-N-[2-methyl-8-(2-pyridyloxy)-imidazo[1,2-a]pyridin-6-yl]indazole-7-carboxamide] |  |  |  |  | > 10 |  |  | > 10 | > 10 | 1 to 10 | > 10 | 1 to 10 | 1 to 10
12 | CNC1CCC(Oc2ccc(C(=O)Nc3cc4cn(C)nc4cc3OC)c3nn(C)cc23)C1 (stereo not drawn) [Compound 603] | 1 to 10 | 1 to 10 |  |  | 1 to 10 | 0.1 to 1 | 0.1 to 1 |  |  | 0.1 to 1 | 1 to 10 |  | 
13 | COc1nc2c(C(=O)Nc3cc(C)c4nn(C)cc4c3OC)ccc(N3C[C@H](C)N[C@@H](C)C3)c2s1 [Compound 717, 7-[(3S,5S)-3,5-dimethylpiperazin-1-yl]-2-methoxy-N-(4-methoxy-2,7-dimethyl-indazol-5-yl)-1,3-benzothiazole-4-carboxamide] | > 10 | 1 to 10 | > 10 | 1 to 10 | 1 to 10 | > 10 | > 10 |  |  |  |  |  | 
14 | COc1nc2nc(C)cn2cc1NC(=O)c1cnc(N2CCC(NC3CC3)CC2)c2cn(C)nc12 [Compound 608, 4-[4-(cyclopropylamino)-1-piperidyl]-N-(7-methoxy-2-methyl-imidazo[1,2-a]-pyrimidin-6-yl)-2-methyl-pyrazolo-[4,3-c]pyridine-7-carboxamide] | < 0.1 | 0.1 to 1 | < 0.1 | 0.1 to 1 | 0.1 to 1 | < 0.1 | < 0.1 |  |  |  |  |  | 
15 | Cc1cn2cc(NC(=O)c3ccc(N4CCC(NC5CC5)C4)c4c3OCO4)cc(F)c2n1 (stereo not drawn) [Compound 649, 7-[3-(cyclopropylamino)-pyrrolidin-1-yl]-N-(8-fluoro-2-methyl-imidazo[1,2-a]pyridin-6-yl)-1,3-benzodioxole-4-carboxamide] | > 10 | > 10 | 1 to 10 | > 10 | 1 to 10 | 0.1 to 1 | 1 to 10 |  |  |  |  |  | 
16 | Cc1cc2c(N3CCC(NC4CC4)CC3)ccc(C(=O)Nc3cc(CO)c4nn(C)cc4c3)n2n1 [Compound 858] | 1 to 10 | 1 to 10 | 0.1 to 1 | 1 to 10 | 0.1 to 1 | 0.1 to 1 | 0.1 to 1 |  |  |  |  |  | 
17 | Cn1cc2cc(NC(=O)c3ccc(N4CCC(NC5CC5)CC4)c4cn(C)nc34)cc(CNS(C)(=O)=O)c2n1 [Compound 735, 4-(4-(cyclopropylamino)piperidin-1-yl)-2-methyl-N-(2-methyl-7-(methylsulfonamidomethyl)-2H-indazol-5-yl)-2H-indazole-7-carboxamide 2,2,2-trifluoroacetate] | > 10 | > 10 | 1 to 10 | > 10 | > 10 | 1 to 10 | 1 to 10 |  |  |  |  |  | 
18 | CCNC1CCN(c2ccc(C(=O)Nc3cc(Oc4ccc(C#N)cc4)c4nc(C)cn4c3)c3nn(C)cc23)CC1 [Compound 352, N-[8-(4-cyanophenoxy)-2-methyl-imidazo[1,2-a]pyridin-6-yl]-4-[4-(ethylamino)-1-piperidyl]-2-methylindazole-7-carboxamide] |  |  |  |  | 0.1 to 1 |  |  | > 10 | 1 to 10 | < 0.1 | 1 to 10 | < 0.1 | < 0.1
19 | CNC1CCCC(Oc2ccc(C(=O)Nc3cc4cn(C)nc4cc3OC)c3nn(C)cc23)C1 (stereo not drawn) [Compound 596] |  |  |  |  | 1 to 10 |  |  | 1 to 10 | 1 to 10 | 1 to 10 | 1 to 10 | 1 to 10 | 1 to 10
20 | Cc1cn2cc(NC(=O)c3c(F)cc(N4CCC(NC5CC5)CC4)c4cn(C)nc34)c(F)c2c(C)n1 [Compound 453, 4-[4-(cyclopropylamino)-1-piperidyl]-6-fluoro-N-(8-fluoro-1,3-dimethyl-pyrrolo[1,2-a]pyrazin-7-yl)-2-methyl-indazole-7-carboxamide] |  |  |  |  | 1 to 10 |  |  | > 10 | > 10 | 0.1 to 1 | > 10 | < 0.1 | 0.1 to 1
21 | COc1nc2c(C(=O)Nc3cc(F)c4nn(C)cc4c3)ccc(N3C[C@H](C)N(C)[C@@H](C)C3)c2s1 [Compound 767, N-(7-fluoro-2-methyl-indazol-5-yl)-2-methoxy-7-[(3S,5S)-3,4,5-trimethylpiperazin-1-yl]-1,3-benzothiazole-4-carboxamide] | 1 to 10 | 1 to 10 | < 0.1 | 1 to 10 | 0.1 to 1 | < 0.1 | < 0.1 |  |  |  |  |  | 
